Source: US10940150B2, “Thymine derivatives and quinazoline-dione derivatives for the inhibition of HSP27” (TECHNISCHE UNIVERSITAET DRESDEN, priority 2014, dated 2021)

Tests used:
HSP27 = HSP27 (Homo sapiens, UniProt P04792); test: Capillary electrophoresis of heat-denatured citrate synthase protein precipitates; format: biochemical; conditions: for Rel. quantity of protein prec. CS: 10 μmol/L
Experimental: (§1) Since the heat-denatured protein aggregates of the citrate synthase from Example 1 are not water-soluble, these can be separated completely from the supernatant by means of centrifugation at room temperature at 16,000×g, 10 min. By using capillary electrophoresis, the compositions of the separated precipitates can be shown and quantified. The relative quantity of protein of precipitated citrate synthase serves as a measure of the efficacy of the test substances.
(§2) In each case, 481 nmol/L HSP27 and 1.44 μmol/L citrate synthase in 40 mmol/L HEPES buffer, pH 7.4, were employed. The relative quantity of protein of the precipitated citrate synthase in each case was normalized using a defined quantity of BSA as internal standard. The relative quantity of protein that precipitated when using 750 μmol/L BVDU was set at 1. The other test substances (2 representatives of phenothiazine derivatives of general formula (V), 2 representatives of purine derivatives of formula (I) or (II)) were each employed at a concentration of 10 μmol/L.
as §1, with “Example 2” for “Example 1”
as §2, with “nM” for “nmol/L”, “thymine” for “purine”, “were” for “were each”, “μmol/L in each case.” for “μmol/L.”
Otherwise, the experiments were performed as described above: […]

RPMI-8226 cells = test: Development of resistance to bortezomib in RPMI-8226 cells; format: cell-based; conditions: bortezomib 0.075-0.275 ng/ml + 1 μmol/L test substance (FIG. 9a)
[1] = 10 μmol/L vs 750 μmol/L BVDU, 43° C. for 70 minutes (Table 3)
[2] = 43° C. for 70 minutes, relative to 750 μmol/L BVDU = 1 (Table 3)

HSP27, sequence (P04792 whole entry): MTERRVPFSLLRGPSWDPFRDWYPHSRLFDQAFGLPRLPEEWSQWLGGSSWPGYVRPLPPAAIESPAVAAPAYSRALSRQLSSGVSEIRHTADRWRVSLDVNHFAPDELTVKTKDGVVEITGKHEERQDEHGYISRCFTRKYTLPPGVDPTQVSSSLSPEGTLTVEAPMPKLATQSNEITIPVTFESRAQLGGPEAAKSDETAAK

Compound | Efficacy compared with BVDU (HSP27; [1]) | Rel. quantity of protein prec. CS (HSP27; [2]) | other results
O=C(NC/C=C\Cn1ccc(=O)[nH]c1=O)C1c2ccccc2OC2C=CC=CC21 (stereo not drawn) [N-[(2Z)-4-(2,4-Dioxo-3H-pyrimidin-1-yl)but-2-en-1-yl]-9,9a-dihydro-4aH-xanthene-9-carboxamide] | 63.38 x | 0.85 | 
O=C(Cc1ccc(-c2ccccc2)cc1)NC/C=C\Cn1ccc(=O)[nH]c1=O [N-[(2Z)-4-(2,4-Dioxo-3H-pyrimidin-1-yl)but-2-en-1-yl]-2-(4-phenylphenyl)acetamide] | 66.15 x | 0.88 | 
CCCc1cn([C@H]2C[C@H](n3cc(C)c(=O)[nH]c3=O)O[C@@H]2CO)nn1 [3′-Deoxy-3′-(4-propyl-1H-1,2,3-triazol-1-yl)thymidine] | 59.59 x | 0.79 | 
Cc1cn(CCCCNC(=O)C(c2ccccc2)c2ccccc2)c(=O)[nH]c1=O [N-[4-(5-Methyl-2,4-dioxo-3H-pyrimidin-1-yl)butyl]-2,2-diphenylacetamide] | 58.97 x | 0.79 | 
Cc1cn(CCCCNC(=O)C2c3ccccc3Oc3ccccc32)c(=O)[nH]c1=O [N-[4-(5-Methyl-2,4-dioxo-3H-pyrimidin-1-yl)butyl]-9H-xanthene-9-carboxamide] | 51.16 x | 0.68 | 
Cc1cn(C2C[C@H](n3cc(-c4cccc(Br)c4)nn3)[C@@H](CO)O2)c(=O)[nH]c1=O (stereo partly drawn) [1-[(4S,5S)-4-[4-(3-Bromophenyl)-1H-1,2,3-triazol-1-yl]-5-(hydroxymethyl)oxolan-2-yl]-5-methyl-1,2,3,4-tetrahydropyrimidine-2,4-dione] | 60.88 x | 0.81 | 
O=C(Cc1ccc2ccccc2c1)NC/C=C\Cn1ccc(=O)[nH]c1=O [N-[(2Z)-4-(2,4-Dioxo-3H-pyrimidin-1-yl)but-2-en-1-yl]-2-(naphthalen-2-yl)acetamide] | 86.25 x | 1.15 | 
Cc1cn([C@H]2C[C@H](n3cc(-c4ccc(Cl)cc4)nn3)[C@@H](CO)O2)c(=O)[nH]c1=O [3′-[4-(4-Chlorophenyl)-1H-1,2,3-triazol-1-yl]-3′-deoxythymidine] | 50.53 x | 0.67 | 
Cc1cn([C@H]2C[C@H](n3cc(C(C)(C)C)nn3)[C@@H](CO)O2)c(=O)[nH]c1=O [3′-Deoxy-3′-[4-(2-methyl-2-propanyl)-1H-1,2,3-triazol-1-yl]thymidine] | 46.01 x | 0.61 | 
Cc1cn(C/C=C\CNC(=O)Cc2ccc3ccccc3c2)c(=O)[nH]c1=O [N-[(2Z)-4-(5-Methyl-2,4-dioxo-3H-pyrimidin-1-yl)but-2-en-1-yl]-2-(naphthalen-2-yl)acetamide] | 62.51 x | 0.83 | 
Cc1cn([C@H]2C[C@H](n3cc(-c4ccccn4)nn3)[C@@H](CO)O2)c(=O)[nH]c1=O [3′-Deoxy-3′-[4-(2-pyridinyl)-1H-1,2,3-triazol-1]-yl]thymidine] | 62.86 x | 0.84 | 
Cc1cn(CCCCNC(=O)C2c3ccccc3-c3ccccc32)c(=O)[nH]c1=O [N-[4-(5-Methyl-2,4-dioxo-3H-pyrimidin-1-yl)butyl]-9H-fluorene-9-carboxamide] | 43.30 x | 0.58 | 
Cc1cn(C/C=C\CNC(=O)c2cccc3ccccc23)c(=O)[nH]c1=O [N-[(2Z)-4-(5-Methyl-2,4-dioxo-3H-pyrimidin-1-yl)but-2-en-1-yl]naphthalene-1-carboxamide] | 58.73 x | 0.78 | 
Cc1cn([C@H]2C[C@H](n3cc(CC4CCCC4)nn3)[C@@H](CO)O2)c(=O)[nH]c1=O [3′-[4-(Cyclopentylmethyl)-1H-1,2,3-triazol-1-yl]-3′-deoxythymidine] | 49.63 x | 0.66 | 
Cc1cn(CC=CCNC(=O)Cc2ccc(-c3ccccc3)cc2)c(=O)[nH]c1=O [2-biphenyl-4-yl-N-[4-(5-methyl-2,4-dioxo-3,4-dihydro-2H-pyrimidin-1-yl)-but-2-enyl]-acetamide] |  |  | times higher activity than BVDU for the inhibition of the HSP27 protein (HSP27; 10 μmol/L vs 750 μmol/L BVDU, 43° C. for 120 minutes): 61 times; Efficacy compared with BVDU (HSP27; 10 μmol/L vs 750 μmol/L BVDU, 43° C. for 120 minutes (Table 2)): 60.75 x; Rel. quantity of protein prec. CS (HSP27; 43° C. for 120 minutes, relative to 750 μmol/L BVDU = 1 (Table 2)): 0.81; BVDU equivalent dose (HSP27; based on 100 mg BVDU): 1.6 mg; development of resistance to the cytostatic agent bortezomib (RPMI-8226 cells): significantly inhibited; living cells at the end of the experiment (RPMI-8226 cells; without HSP27 inhibitor 510,000 cells/ml): 380,000 living cells per ml medium
CCCCc1cn([C@H]2C[C@H](n3cc(C)c(=O)[nH]c3=O)O[C@@H]2CO)nn1 [3′-(4-Butyl-1H-1,2,3-triazol-1-yl)-3′-deoxythymidine] | 57.08 x | 0.76 | 
Cc1cn(C/C=C\CNC(=O)Cc2cccc3ccccc23)c(=O)[nH]c1=O [N-[(2Z)-4-(5-Methyl-2,4-dioxo-3H-pyrimidin-1-yl)but-2-en-1-yl]-2-(naphthalen-1-yl)acetamide] | 60.44 x | 0.81 | 
Cc1cn([C@H]2C[C@H](n3cc(CCc4ccccc4)nn3)[C@@H](CO)O2)c(=O)[nH]c1=O [3′-Deoxy-3′-[4-(2-phenylethyl)-1H-1,2,3-triazol-1-yl]-thymidine] | 55.67 x | 0.74 | 
CCCCCc1cn([C@H]2C[C@H](n3cc(C)c(=O)[nH]c3=O)O[C@@H]2CO)nn1 [3′-Deoxy-3′-(4-pentyl-1H-1,2,3-triazol-1-yl)thymidine] | 52.57 x | 0.70 | 
Cc1cn(C/C=C\CNC(=O)C(c2ccccc2)c2ccccc2)c(=O)[nH]c1=O [N-[(2Z)-4-(5-Methyl-2,4-dioxo-3H-pyrimidin-1-yl)but-2-en-1-yl]-2,2-diphenylacetamide] | 61.19 x | 0.82 | 
Cc1cn(C/C=C\CNC(=O)C2c3ccccc3-c3ccccc32)c(=O)[nH]c1=O [N-[(2Z)-4-(5-Methyl-2,4-dioxo-3H-pyrimidin-1-yl)but-2-en-1-yl]-9H-fluorene-9-carboxamide] | 64.31 x | 0.86 | 
Cc1cn(CCCCNC(=O)Cc2ccc(-c3ccccc3)cc2)c(=O)[nH]c1=O [N-[4-(5-Methyl-2,4-dioxo-3H-pyrimidin-1-yl)butyl]-2-(4-phenylphenyl)acetamide] | 50.52 x | 0.67 | 
COc1ccc(-c2cn([C@H]3CC(n4cc(C)c(=O)[nH]c4=O)O[C@@H]3CO)nn2)cc1 (stereo partly drawn) [1-[(4S,5S)-5-(Hydroxymethyl)-4-[4-(4-methoxyphenyl)-1,2,3-triazol-1-yl]oxolan-2-yl]-5-methyl-3H-pyrimidine-2,4-dione] | 55.89 x | 0.75 | 
Cc1cn([C@H]2C[C@H](n3cc(-c4ccc(F)cc4)nn3)[C@@H](CO)O2)c(=O)[nH]c1=O [3′-Deoxy-3′-[4-(4-fluorophenyl)-1H-1,2,3-triazol-1-yl]-thymidine] | 49.69 x | 0.66 | 
Cc1cn(C2C[C@H](n3cc(-c4ccc(Br)cc4)nn3)[C@@H](CO)O2)c(=O)[nH]c1=O (stereo partly drawn) [1-[(4S,5S)-4-[4-(4-Bromophenyl)-1,2,3-triazol-1-yl]-5-(hydroxymethyl)oxolan-2-yl]-5-methyl-3H-pyrimidine-2,4-dione] | 48.14 x | 0.64 | 
Cc1cn(CCCCNC(=O)Cc2ccc3ccccc3c2)c(=O)[nH]c1=O [N-[4-(5-Methyl-2,4-dioxo-3H-pyrimidin-1-yl)butyl]-2-(naphthalen-2-yl)acetamide] | 56.36 x | 0.75 | 
Cc1cn([C@H]2C[C@H](n3cc(-c4ccccc4)nn3)[C@@H](CO)O2)c(=O)[nH]c1=O [3′-Deoxy-3′-(4-phenyl-1H-1,2,3-triazol-1-yl)thymidine] | 59.07 x | 0.79 | 
Cc1cn([C@H]2C[C@H](n3cc(-c4ccc(Cl)c(Cl)c4)nn3)[C@@H](CO)O2)c(=O)[nH]c1=O [3′-Deoxy-3′-[4-(3,4-dichlorophenyl)-1H-1,2,3-triazol-1-yl]-thymidine] | 64.21 x | 0.86 | 
